Assay results as given in US9956228B2, “Method of treating acute myeloid leukemia and/or acute lymphoblastic leukemia using thienotriazolodiazepine compounds” (ONCOETHIX GMBH, priority 2014, dated 2018).

Columns and labels:
[1] = phase Ib dose-finding study, population pharmacokinetics; format: in vivo, human
Method: An oncology phase Ib trial of compound (1-1) was conducted by the inventors with the primary objective of investigating escalation of the dose of compound (1-1) administered to patients with acute leukemia or other hematologic malignancies. The study enrolled patients with acute leukemia or other hematologic malignancies. The patients received several active dose levels of compound (1-1) ranging from 10 mg to 160 mg according to different dosing schedules. Blood samples from 7 time points were collected from each patient over 24 hours post-administration on Day 1 for leukemia patients (“complete PK”) and 4 blood samples were collected from each patient over 8 hours post-administration for patients with other hematologic malignancies (“limited PK”). compound (1-1) plasma concentrations were measured on the basis of the blood samples using validated ultra performance liquid chromatography with tandem mass spectrometry detection with a concentration range 1-250 ng/mL. Analyses and population pharmacokinetics (PPK) modeling were performed with the nonlinear mixed effect modeling software program Monolix version 4.3. Pharmacokinetic Parameters, including absorption constant (Ka); apparent distribution volume (V/F), apparent clearance (CL/F) and lean body mass (LBM; calculated calculated considering patient sex, weight and height) were calculated.
85 patients enrolled in the phase Ib trial of compound (1-1) and were treated from January 2013 to August 2014. The patients were randomized to […]: 10 mg, 20 mg, 40 mg, 80 mg, 120 mg and 160 mg once a day dosing (QD); and 40 mg twice a day dosing (BID). Among them, 81 patients with 630 plasma concentrations (607+23 BLQ) were evaluable for PK assessment. A 1-compartment open model adequately described the total compound (1-1) concentration-time curve. […] In the PPK study, the best simulation model was obtained when LBM was considered in the analysis. A correlation between CL/F and V/F was also observed for compound (1-1).

[2] = tested on: HL-60, U937, K562, Jurkat, MOLT-3; assay: cellular PK: extracellular and intracellular concentrations by UPLC-MS/MS; format: in vitro ADME, human; conditions: 500 nM
Method: (§1) Five established human cell lines from acute and chronic acute myeloid leukemia (HL-60, U937, K562) and acute lymphoblastic leukemia (Jurkat, MOLT-3) were used. […] For cellular PK studies, cells were seeded at 2·10^6 cells/ml and exposed to 500 nM compound 1-1 for 0, 5, 15, 30, 60, 120 and 360 minutes. At each time point, compound 1-1 extracellular and intracellular concentrations were analyzed in cell supernatant and pellets respectively, using an Ultra Performance Liquid Chromatography with tandem Mass Spectrometry (concentration range 1-250 ng/mL). Experiments were performed in quadruplicate. In addition, in cell pellets protein modulation was analyzed by Western blot using commercial antibodies and qRT-PCR was performed using Fast SYBR Green on a StepOnePlus RT-PCR System.

CMYC [3] = assay: CMYC modulation (Western blot, qRT-PCR) in sensitive cell lines HL60 and Jurkat; format: cell-based, human; conditions: 500 nM
Method: as §1

[4] = tested on: other cell lines (K-562, NALM-1, CCRF-CEM, MOLT-3/-4); assay: MTT assay after 72 hours, other cell lines; format: cell-based; conditions: Homo sapiens, 72 h exposure
Method: (§2) Protein was analyzed by Western blot and qRT-PCR was performed with Fast SYBR Green on a StepOnePlus Real-Time PCR System. […] Combination Index (CI) was determined using Chou & Talalay analysis; CI<1 reflects synergy, CI=1 additivity and CI>1 reflects antagonism.
(§3) Four established human cell lines derived from acute (HL60, U937) or chronic (K562) myeloid leukemia cells, and acute lymphoblastic leukemia cells (Jurkat) were treated with increasing doses of compound (1-1). MTT assays were performed after 72 hours exposure. GI50 and Emax values were calculated with the equation for sigmoidal dose response using Prism 5.00 and cell lines were classified as sensitive or resistant.
(§4) Five established human cell lines from acute and chronic acute myeloid leukemia (HL-60, U937, K562) and acute lymphoblastic leukemia (Jurkat, MOLT-3) were used. […] At each time point, compound 1-1 extracellular and intracellular concentrations were analyzed in cell supernatant and pellets respectively, using an Ultra Performance Liquid Chromatography with tandem Mass Spectrometry (concentration range 1-250 ng/mL). […] In addition, in cell pellets protein modulation was analyzed by Western blot using commercial antibodies and qRT-PCR was performed using Fast SYBR Green on a StepOnePlus RT-PCR System.

CMYC [5] = assay: CMYC modulation (Western blot, qRT-PCR) in resistant cell line K562; format: cell-based, human; conditions: K562, 500 nM
Method: as §1

HL60, U937 and Jurkat = assay: MTT assay after 72 hours, sensitive cell lines; format: cell-based; conditions: Homo sapiens, 72 h exposure
Method: as §2, §3, §4

HDAC8 = target: T1, HDAC8 (Homo sapiens, UniProt Q9BY41); conditions: cited from earlier work
T1 sequence (Q9BY41 1-377): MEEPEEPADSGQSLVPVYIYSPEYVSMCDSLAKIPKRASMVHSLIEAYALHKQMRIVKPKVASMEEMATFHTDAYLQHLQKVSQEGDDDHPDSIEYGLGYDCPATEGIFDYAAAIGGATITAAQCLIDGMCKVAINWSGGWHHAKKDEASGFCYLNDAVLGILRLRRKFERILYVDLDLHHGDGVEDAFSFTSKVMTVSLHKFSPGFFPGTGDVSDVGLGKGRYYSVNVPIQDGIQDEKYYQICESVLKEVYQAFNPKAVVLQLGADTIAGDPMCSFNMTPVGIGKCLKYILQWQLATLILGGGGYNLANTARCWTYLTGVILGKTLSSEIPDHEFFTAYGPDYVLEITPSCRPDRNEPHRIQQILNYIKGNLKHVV

[6] = patients, PPK 1-compartment model
[7] = sensitive and resistant leukemic cell lines

Row | SMILES | half-life ([1]; human, plasma, oral, all patients, read-out: mean elimination half-life (converted)) | Tmax ([1]; human, plasma, oral, patients) | absorption constant Ka ([1]; patients, 10-160 mg oral, PPK 1-compartment model) | apparent clearance CL/F [1, 6] | apparent distribution volume V/F [1, 6] | intracellular concentration, mean [2, 7] | intracellular concentration, range [2, 7] | time to cellular uptake [2, 7] | extracellular levels ([2]; stable up to 6 h of incubation) | CMYC protein and mRNA levels (CMYC [3]) | GI50 [4] | exposure time after which CMYC mRNA levels downregulation was observed (CMYC [5]) | GI50 (HL60, U937 and Jurkat) | IC50 (HDAC8)
1 | Cc1sc2c(c1C)C(c1ccc(Cl)cc1)=N[C@@H](CC(=O)Nc1ccc(O)cc1)c1nnc(C)n1-2 [Compound (1-1), 2-[(6S)-4-(4-chlorophenyl)-2,3,9-trimethyl-6H-thienol[3,2-f]-[1,2,4]triazolo[4,3-a][1,4]diazepin-6-yl]-N-(4-hydroxyphenyl)acetamide dihydrate] | 5.8 h | 1 to 4 h | 0.74 h⁻¹ | 8.45 L/h | 71.7 L | ~15 ng/106 cells | 3-23 ng·mL-1/106 cells | < 5 min | ~200 ng/mL | rapid downregulation | ≥ 6000 nM | 2 h | 230 to 384 nM | –
2 | Cc1cc(Cl)ccc1OCCCC(=O)NO [Droxinostat, 4-(4-Chloro-2-methylphenoxy)-N-hydroxybutanamide] | – | – | – | – | – | – | – | – | – | – | – | – | – | 1460 nM
